Laboratory results as given in patent US9282744B2, “Synergistic fungicide composition” (JIANGSU HUIFENG AGROCHEMICAL CO., LTD., priority 2012, dated 2016).
Converted amounts (≈) assume the structure as drawn.

Legend:
[1] = tested on: cucumber downy mildew pathogenic fungi; test: Test of toxicity of compound benziothiazolinone and dimethomorph on cucumber downy mildew; format: in vivo; conditions: for EC50: cucumber downy mildew, Table 2; for ATI (actual toxicity index): benziothiazolinone as standard = 100
Protocol: (§1) The incidence of whole cucumber leaves was investigated according to test grading level, and the disease index and the prevention and treatment effect were calculated.
(§2) The prevention and treatment effect was converted into probability values (y), the heights of the chemicals (μg/ml) were converted into logarithm values (x), the toxicity equation and the median inhibition concentration EC50 were calculated by the least square method, and the toxicity index level co-toxicity coefficient (CTC) of the chemicals was calculated according to the Sun Yunpei's method. Actual toxicity index(ATI)=(EC50 of the standard reagent/EC50 of the test reagent)×100 Theoretical toxicity index(TTI)=the toxicity index of chemicalA×the percentage of A in the mixture+the toxicity index of chemical B×the percentage of B in the mixture Co-toxicity coefficient(CTC)=[Actual toxicity index(ATI) of the mixture/Theoretical toxicity index(TTI) of the mixture][…]
2. Test of Toxicity of Compound Benziothiazolinone and Dimethomorph on Cucumber Downy Mildew

oomycetes fungi = conditions: formation stages of sporangiophores and oospores of oomycetes; cited from earlier work
[2] = tested on: cucumber downy mildew pathogenic fungi; test: Test of toxicity of compound benziothiazolinone and dithianon on cucumber downy mildew pathogenic fungi; format: in vivo; conditions: for ATI (actual toxicity index): benziothiazolinone as standard = 100; for EC50: cucumber downy mildew, Table 1
Protocol: 1. Test of Toxicity of Compound Benziothiazolinone and Dithianon on Cucumber Downy Mildew Pathogenic Fungi
Subjects for Test: Cucumber Downy Mildew Pathogenic Fungi
as §1, §2

[3] = tested on: cucumber downy mildew pathogenic fungi; test: Test of toxicity of compound benziothiazolinone and iprodione on cucumber downy mildew; format: in vivo; conditions: for ATI (actual toxicity index): benziothiazolinone as standard = 100; for EC50: cucumber downy mildew, Table 3
Protocol: as §1, §2
3. Test of Toxicity of Compound Benziothiazolinone and Iprodione on Cucumber Downy Mildew

[4] = tested on: cucumber downy mildew pathogenic fungi; test: Test of toxicity of compound benziothiazolinone and epoxiconazol on cucumber downy mildew; format: in vivo; conditions: for ATI (actual toxicity index): benziothiazolinone as standard = 100; for EC50: cucumber downy mildew, Table 4
Protocol: as §1, §2
4. Test of Toxicity of Compound Benziothiazolinone and Epoxiconazol on Cucumber Downy Mildew

[5] = Cucumis sativus, read-out: EC50

## COc1ccc(C(=CC(=O)N2CCOCC2)c2ccc(Cl)cc2)cc1OC [Dimethomorph]
[1]; [5]
  EC50: 6.36 µg/mL (≈ 16.4 µM)
[1]
  ATI (actual toxicity index): 63.9
Oomycetes fungi
  concentration at which inhibited: 0.25 µg/mL

## O=c1[nH]sc2ccccc12 [Benziothiazolinone]
[2]
  ATI (actual toxicity index): 100.0
  EC50: 3.25 µg/mL (≈ 21.5 µM)
[1]
  ATI (actual toxicity index): 100.0
  EC50: 4.08 µg/mL (≈ 27 µM)
[3]
  ATI (actual toxicity index): 100.00
  EC50: 4.21 µg/mL (≈ 27.8 µM)
[4]
  ATI (actual toxicity index): 100.00
  EC50: 3.81 µg/mL (≈ 25.2 µM)

## CC(C)NC(=O)N1CC(=O)N(c2cc(Cl)cc(Cl)c2)C1=O [Iprodione]
[3]; [5]
  EC50: 5.82 µg/mL (≈ 17.6 µM)
[3]
  ATI (actual toxicity index): 72.34

## Fc1ccc([C@]2(Cn3cncn3)O[C@H]2c2ccccc2Cl)cc1 [Epoxiconazol]
[4]
  ATI (actual toxicity index): 89.65
  EC50: 4.25 µg/mL (≈ 12.9 µM)

## N#Cc1sc2c(=O)c3ccccc3c(=O)c=2sc1C#N [Dithianon]
[2]; [5]
  EC50: 5.41 µg/mL (≈ 18.3 µM)
[2]
  ATI (actual toxicity index): 60.1
